In patent publication US10538555B2, “Macrocyclic inhibitors of the PD-1/PD-L1 and CD80(B7-1)/PD-L1 protein/protein interactions” (BRISTOL-MYERS SQUIBB COMPANY, priority 2014, dated 2020) one finds IC50 data, which are given here for 14 molecules.

*1 amine or outer side, *2 acyl side, *3 side chain or, on linkers, in order; H or OH if unused. Where a SMILES comes first, the peptide text is derived from it. Bridges are numbered along the chain shown (N, C = ends). [ ]: non-standard residue; d: D form. ξ: configuration not given here. Trp(1-CH2COOH) = N[C@@H](Cc1cn(CC(=O)O)c2ccccc12)C(=O)O; Phe(3,4,5-F3) = N[C@@H](Cc1cc(F)c(F)c(F)c1)C(=O)O; NMePhe(4-F) = CN[C@@H](Cc1ccc(F)cc1)C(=O)O; d(cisHyp) = O=C(O)[C@H]1C[C@@H](O)CN1; Hyp = O=C(O)[C@@H]1C[C@@H](O)CN1; NMeF = CN[C@@H](Cc1ccccc1)C(=O)O; X1 = O=C([C@H]1COCCN1[*:1])[*:2]; NMeE = CN[C@@H](CCC(=O)O)C(=O)O; X9 = NN[C@H](N[*:1])C(=O)[*:2]; NMeNle = CCCC[C@H](NC)C(=O)O; dPip = O=C(O)[C@H]1CCCCN1; hSer = N[C@@H](CCO)C(=O)O; NMeA = CN[C@@H](C)C(=O)O; Orn = NCCC[C@H](N)C(=O)O; Dab = NCC[C@H](N)C(=O)O; Abu = CC[C@H](N)C(=O)O; Dap = NC[C@H](N)C(=O)O; ξC = NC(CS)C(=O)O

The first assay deals with T1, Human PD-L1/PD-1 (Homo sapiens, UniProt Q9NZQ7).
T1 construct: TVMV protease cleavage site (C); made in house; host or cells: HEK293T cells
T1 sequence (Q9NZQ7 with tags, fused parts or gaps): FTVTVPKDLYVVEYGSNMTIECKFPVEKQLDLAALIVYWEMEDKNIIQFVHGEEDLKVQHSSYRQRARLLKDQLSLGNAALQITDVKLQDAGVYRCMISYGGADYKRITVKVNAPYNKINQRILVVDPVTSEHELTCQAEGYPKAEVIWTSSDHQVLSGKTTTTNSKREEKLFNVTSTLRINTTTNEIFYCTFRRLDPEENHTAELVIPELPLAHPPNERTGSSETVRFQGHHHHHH
Nature of the assay: HTRF Human PD-L1/PD-1 binding assay (PD-1-Ig/PD-L1-His). Particulars: PD-L1-His 10 nM, PD-1-Ig 20 nM; class symbol; read-out: HTRF Human PD-L1/PD-1 Binding Assay IC50 Range. An outline of the steps: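 Competition of macrocyclic peptides for PD-1/PD-L1 binding measured by HTRF in dPBS containing 0.1% BSA and 0.05% Tween-20. Compound and PD-L1-His (10 nM final) incubated 15 min before PD-1-Ig (20 nM final) and a further 15 min.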
For the molecule `CCCC[C@H]1C(=O)N2C[C@H](O)C[C@@H]2C(=O)N[C@@H](CC(=O)O)C(=O)N[C@@H](C(C)C)C(=O)N(C)[C@@H](Cc2ccccc2)C(=O)N[C@@H](CCN)C(=O)N2C[C@H](O)C[C@@H]2C(=O)N[C@@H](Cc2c[nH]c3ccccc23)C(=O)N[C@@H](Cc2ccc(O)cc2)C(=O)N[C@@H](CCCN)C(=O)N[C@H](C(=O)NCC(N)=O)CSCC(=O)N[C@@H](Cc2cc(F)c(F)c(F)c2)C(=O)N(C)[C@@H](Cc2ccc(F)cc2)C(=O)N1C` [Example 10613] ({CH2CO}-[Phe(3,4,5-F3)][NMePhe(4-F)][NMeNle][d(cisHyp)]DV[NMeF][Dab][d(cisHyp)]WY[Orn]CG-NH2; thioether N-13), the IC50 lay within 1 to 9.9 nM.

`CCCC[C@H]1C(=O)N2C[C@H](O)C[C@@H]2C(=O)N[C@@H](CC(=O)O)C(=O)N[C@@H](C(C)C)C(=O)N(C)[C@@H](Cc2ccccc2)C(=O)N[C@@H](CCC(N)=O)C(=O)N2C[C@H](O)C[C@@H]2C(=O)N[C@@H](Cc2c[nH]c3ccccc23)C(=O)N[C@@H](Cc2ccc(O)cc2)C(=O)N[C@@H](CCCN)C(=O)N[C@H](C(=O)NCC(N)=O)CSCC(=O)N[C@@H](Cc2cc(F)c(F)c(F)c2)C(=O)N(C)[C@@H](Cc2ccccc2)C(=O)N1C` [Example 9354] ({CH2CO}-[Phe(3,4,5-F3)][NMeF][NMeNle][d(cisHyp)]DV[NMeF]Q[d(cisHyp)]WY[Orn]CG-NH2; thioether N-13): the IC50 is 1 to 9.9 nM.

For `CCCC[C@H]1C(=O)N(C)[C@@H](CCCC)C(=O)NCC(=O)N[C@H](C(=O)NCC(N)=O)CSCC(=O)N[C@@H](Cc2ccc(O)cc2)C(=O)N(C)[C@@H](C)C(=O)N[C@@H](CC(N)=O)C(=O)N2CCC[C@H]2C(=O)NCC(=O)N[C@@H](CCC(N)=O)C(=O)N2C[C@H](O)C[C@H]2C(=O)N[C@@H](Cc2c[nH]c3ccccc23)C(=O)NCC(=O)N[C@@H](Cc2c[nH]c3ccccc23)C(=O)N1C` [Example 5219] ({CH2CO}-Y[NMeA]NPGQ[Hyp]WGW[NMeNle][NMeNle]GCG-NH2; thioether N-14), the IC50 is 1 to 9.9 nM.

Take `CCCC[C@H]1C(=O)N(C)[C@@H](CCCC)C(=O)N[C@@H](CC(C)C)C(=O)N[C@H](C(=O)NCC(N)=O)CSCC(=O)N[C@@H](Cc2ccc(OC)cc2)C(=O)N(C)[C@@H](C)C(=O)N[C@@H](CC(=O)O)C(=O)N2CCC[C@H]2C(=O)N[C@@H](Cc2cnc[nH]2)C(=O)N[C@@H](CCCCN)C(=O)N2C[C@H](O)C[C@@H]2C(=O)N[C@@H](Cc2c[nH]c3ccccc23)C(=O)N[C@@H](CCCCN)C(=O)N[C@@H](Cc2cn(CC(=O)O)c3ccccc23)C(=O)N1C` [Example 7153] ({CH2CO}-Y(Me)[NMeA]DPHK[d(cisHyp)]WK[Trp(1-CH2COOH)][NMeNle][NMeNle]LCG-NH2; thioether N-14): the IC50 was in the range of 1 to 9.9 nM.

For `CCCC[C@H]1C(=O)N2C[C@H](O)C[C@@H]2C(=O)N[C@@H](CC(=O)O)C(=O)N[C@@H](C(C)C)C(=O)N(C)[C@@H](Cc2ccccc2)C(=O)N[C@@H](Cc2ccc(O)cc2)C(=O)N2C[C@H](O)C[C@@H]2C(=O)N[C@@H](Cc2c[nH]c3ccccc23)C(=O)N[C@@H](Cc2ccc(O)cc2)C(=O)N[C@@H](CC(N)=O)C(=O)N[C@H](C(=O)NCC(N)=O)CSCC(=O)N[C@@H](Cc2cc(F)c(F)c(F)c2)C(=O)N(C)[C@@H](Cc2ccccc2)C(=O)N1C` [Example 9329] ({CH2CO}-[Phe(3,4,5-F3)][NMeF][NMeNle][d(cisHyp)]DV[NMeF]Y[d(cisHyp)]WYNCG-NH2; thioether N-13), the IC50 was 1 to 9.9 nM.

With `CCCC[C@H]1C(=O)N2CCOC[C@@H]2C(=O)N[C@@H](CC(=O)O)C(=O)N[C@@H](C(C)C)C(=O)N(C)[C@@H](Cc2ccccc2)C(=O)N[C@@H](Cc2ccc(O)cc2)C(=O)N2CCOC[C@@H]2C(=O)N[C@@H](Cc2c[nH]c3ccccc23)C(=O)N[C@@H](Cc2ccc(O)cc2)C(=O)N[C@@H](CC(C)C)C(=O)N[C@H](C(=O)NCC(N)=O)CSCC(=O)N[C@@H](Cc2cc(F)c(F)c(F)c2)C(=O)N(C)[C@@H](Cc2ccccc2)C(=O)N1C` [Example 9283] ({CH2CO}-[Phe(3,4,5-F3)][NMeF][NMeNle][X1]DV[NMeF]Y[X1]WYLCG-NH2; thioether N-13), the IC50 lay within 1 to 9.9 nM.

Take `CCCC[C@H]1C(=O)N(C)[C@@H](CCCC)C(=O)N[C@@H](CCCNC(=N)N)C(=O)N[C@H](C(=O)NCC(N)=O)CSCC(=O)N[C@@H](Cc2ccc(O)cc2)C(=O)N(C)[C@@H](C)C(=O)N[C@@H](CC(N)=O)C(=O)N2CCC[C@H]2C(=O)N[C@@H](NN)C(=O)N[C@@H](CC(C)C)C(=O)N2C[C@H](O)C[C@H]2C(=O)N[C@@H](Cc2c[nH]c3ccccc23)C(=O)N[C@@H]([C@@H](C)O)C(=O)N[C@@H](Cc2c[nH]c3ccccc23)C(=O)N1C` [Example 7073] ({CH2CO}-Y[NMeA]NP[X9]L[Hyp]WTW[NMeNle][NMeNle]RCG-NH2; thioether N-14): the IC50 lay within 1 to 9.9 nM.

Regarding `CCCC[C@H]1C(=O)N(C)[C@@H](C)C(=O)N[C@@H](CCCNC(=N)N)C(=O)NC(C(=O)N[C@@H](CO)C(N)=O)CSCC(=O)N[C@@H](Cc2ccc(O)cc2)C(=O)N(C)[C@@H](C)C(=O)N[C@@H](CC(N)=O)C(=O)N2CCC[C@H]2C(=O)N[C@@H](CO)C(=O)N[C@H](CC(C)C)C(=O)N2C[C@H](O)C[C@H]2C(=O)N[C@@H](Cc2c[nH]c3ccccc23)C(=O)N[C@@H](CO)C(=O)N[C@@H](Cc2c[nH]c3ccccc23)C(=O)N1C` (stereo partly drawn) [Example 9123] ({CH2CO}-Y[NMeA]NPS[dL][Hyp]WSW[NMeNle][NMeA]R[ξC]S-NH2; thioether N-14), the IC50 was in the range of 1 to 9.9 nM.

In the case of `CCCC[C@H]1C(=O)N2C[C@H](O)C[C@@H]2C(=O)N[C@@H](CC(=O)O)C(=O)N[C@@H](C(C)C)C(=O)N(C)[C@@H](Cc2ccccc2)C(=O)N[C@@H](CCC(N)=O)C(=O)N2C[C@H](O)C[C@@H]2C(=O)N[C@@H](Cc2c[nH]c3ccccc23)C(=O)N[C@@H](Cc2ccc(O)cc2)C(=O)N[C@@H](CCN)C(=O)N[C@H](C(=O)NCC(N)=O)CSCC(=O)N[C@@H](Cc2cc(F)c(F)c(F)c2)C(=O)N(C)[C@@H](Cc2ccccc2)C(=O)N1C` [Example 9355] ({CH2CO}-[Phe(3,4,5-F3)][NMeF][NMeNle][d(cisHyp)]DV[NMeF]Q[d(cisHyp)]WY[Dab]CG-NH2; thioether N-13), the IC50 is 1 to 9.9 nM.

Regarding `CCCC[C@H]1C(=O)N(C)[C@@H](CCCC)C(=O)N[C@@H](CCC(=O)O)C(=O)N[C@H](C(=O)NCC(N)=O)CSCC(=O)N[C@@H](Cc2ccc(OC)cc2)C(=O)N(C)[C@@H](C)C(=O)N[C@@H](CC(=O)O)C(=O)N2CCC[C@H]2C(=O)N[C@@H](CN)C(=O)N[C@@H](CCCCN)C(=O)N2C[C@H](O)C[C@H]2C(=O)N[C@@H](Cc2c[nH]c3ccccc23)C(=O)N[C@@H](CC(=O)O)C(=O)N[C@@H](Cc2c[nH]c3ccccc23)C(=O)N1C` [Example 7130] ({CH2CO}-Y(Me)[NMeA]DP[Dap]K[Hyp]WDW[NMeNle][NMeNle]ECG-NH2; thioether N-14), the IC50 was in the range of 10 to 99.9 nM.

As for `CCCC[C@H]1C(=O)N(C)[C@@H](CCCC)C(=O)N[C@@H](CCC(=O)O)C(=O)N[C@H](C(=O)NCC(N)=O)CSCC(=O)N[C@@H](Cc2ccc(O)cc2)C(=O)N(C)[C@@H](C)C(=O)N[C@@H](CC(N)=O)C(=O)N2CCC[C@H]2C(=O)N[C@@H](Cc2cnc[nH]2)C(=O)N[C@@H](CCC(=O)O)C(=O)N2C[C@H](O)C[C@H]2C(=O)N[C@@H](Cc2c[nH]c3ccccc23)C(=O)N[C@@H](CCN)C(=O)N[C@@H](Cc2cn(CC(=O)O)c3ccccc23)C(=O)N1C` [Example 6134] ({CH2CO}-Y[NMeA]NPHE[Hyp]W[Dab][Trp(1-CH2COOH)][NMeNle][NMeNle]ECG-NH2; thioether N-14), the IC50 was in the range of 1 to 9.9 nM.

Take `CCCC[C@H]1C(=O)N2CCOC[C@@H]2C(=O)N[C@@H](CC(=O)O)C(=O)N[C@@H](C(C)C)C(=O)N(C)[C@@H](Cc2ccccc2)C(=O)N[C@@H](Cc2ccc(O)cc2)C(=O)N2C[C@H](O)C[C@@H]2C(=O)N[C@@H](Cc2c[nH]c3ccccc23)C(=O)N[C@@H](Cc2ccc(O)cc2)C(=O)N[C@@H](CCOC)C(=O)N[C@H](C(=O)NCC(N)=O)CSCC(=O)N[C@@H](Cc2cc(F)c(F)c(F)c2)C(=O)N(C)[C@@H](Cc2ccccc2)C(=O)N1C` [Example 10183] ({CH2CO}-[Phe(3,4,5-F3)][NMeF][NMeNle][X1]DV[NMeF]Y[d(cisHyp)]WY[hSer](Me)CG-NH2; thioether N-13): the IC50 lay in the range of 10 to 99.9 nM.

For `CCCC[C@H]1C(=O)N2CCC[C@@H]2C(=O)N[C@@H](CO)C(=O)N[C@@H](CC)C(=O)N(C)[C@@H](Cc2ccccc2)C(=O)N[C@@H](Cc2ccc(O)cc2)C(=O)N2CCCC[C@@H]2C(=O)N[C@@H](Cc2c[nH]c3ccccc23)C(=O)N[C@@H](Cc2ccc(O)cc2)C(=O)N[C@@H](CC(C)C)C(=O)N[C@H](C(=O)NCC(N)=O)CSCC(=O)N[C@@H](Cc2ccccc2)C(=O)N(C)[C@@H](Cc2ccccc2)C(=O)N1C` [Example 10060] ({CH2CO}-F[NMeF][NMeNle][dP]S[Abu][NMeF]Y[dPip]WYLCG-NH2; thioether N-13), the IC50 lay within 10 to 99.9 nM.

Still in this assay, the particulars now being: PD-L1-His 10 nM, PD-1-Ig 20 nM; read-out: HTRF Human PD-L1/PD-1 Binding Assay IC50.
`CC(C)C[C@@H]1NC(=O)[C@H](Cc2ccc(O)cc2)NC(=O)[C@H](Cc2c[nH]c3ccccc23)NC(=O)[C@H]2COCCN2C(=O)[C@H](Cc2ccc(O)cc2)NC(=O)[C@H](Cc2ccccc2)N(C)C(=O)[C@H](C(C)C)NC(=O)[C@H](CC(=O)O)NC(=O)[C@H]2C[C@@H](O)CN2C(=O)[C@H](CCC(=O)O)N(C)C(=O)[C@H](Cc2ccccc2)N(C)C(=O)[C@H](Cc2cc(F)c(F)c(F)c2)NC(=O)CSC[C@@H](C(=O)NCC(N)=O)NC1=O` [Example 10176] ({CH2CO}-[Phe(3,4,5-F3)][NMeF][NMeE][d(cisHyp)]DV[NMeF]Y[X1]WYLCG-NH2; thioether N-13): the IC50 worked out at 11 nM.
